Measured values as given in patent US20240246942A1, “KINASE INHIBITORS FOR THE TREATMENT OF NEURODEGENERATIVE DISEASES” (priority 2020, published 2024).

How the values were obtained:
Assay in all cases: biochemical
[1] = biological target: T1, panel of 374 wild-type kinases (Homo sapiens, UniProt P07332); conditions: read-out: % Enzyme Activity (relative to DMSO controls), FES/FPS
T1 construct: purchased Reaction Biology Corporation

[2] = biological target: T2, panel of 374 wild-type kinases (Homo sapiens, UniProt P10398); conditions: read-out: % Enzyme Activity (relative to DMSO controls), ARAF
T2 construct: purchased Reaction Biology Corporation
T2 sequence (P10398 1-606): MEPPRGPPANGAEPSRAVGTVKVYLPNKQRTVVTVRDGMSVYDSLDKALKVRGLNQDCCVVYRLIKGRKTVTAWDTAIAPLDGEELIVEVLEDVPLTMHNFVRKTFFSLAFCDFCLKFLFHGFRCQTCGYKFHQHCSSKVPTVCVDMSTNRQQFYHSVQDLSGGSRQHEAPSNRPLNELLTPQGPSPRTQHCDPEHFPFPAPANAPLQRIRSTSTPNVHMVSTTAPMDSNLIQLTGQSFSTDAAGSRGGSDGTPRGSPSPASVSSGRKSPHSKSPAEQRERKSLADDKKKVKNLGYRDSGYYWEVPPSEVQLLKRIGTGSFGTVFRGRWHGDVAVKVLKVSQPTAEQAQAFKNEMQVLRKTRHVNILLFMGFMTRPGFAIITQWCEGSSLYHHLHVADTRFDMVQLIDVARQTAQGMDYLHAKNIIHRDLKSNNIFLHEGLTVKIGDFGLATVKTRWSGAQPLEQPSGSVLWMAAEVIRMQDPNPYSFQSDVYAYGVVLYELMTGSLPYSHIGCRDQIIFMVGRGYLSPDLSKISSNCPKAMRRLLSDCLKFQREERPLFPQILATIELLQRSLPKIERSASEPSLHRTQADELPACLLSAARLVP

[3] = biological target: T3, panel of 374 wild-type kinases (Homo sapiens, UniProt Q07912); conditions: read-out: % Enzyme Activity (relative to DMSO controls), ACK1
T3 construct: purchased Reaction Biology Corporation

[4] = biological target: T4, panel of 374 wild-type kinases (Homo sapiens, UniProt Q6P5Z2); conditions: read-out: % Enzyme Activity (relative to DMSO controls), kinase PKN3/PRK3
T4 construct: purchased Reaction Biology Corporation

[5] = biological target: T5, panel of 374 wild-type kinases (Homo sapiens, UniProt Q8WTQ7); conditions: for remaining activity at 5 µM: read-out: % Enzyme Activity (relative to DMSO controls), GRK7
T5 construct: purchased Reaction Biology Corporation
T5 sequence (Q8WTQ7 1-553): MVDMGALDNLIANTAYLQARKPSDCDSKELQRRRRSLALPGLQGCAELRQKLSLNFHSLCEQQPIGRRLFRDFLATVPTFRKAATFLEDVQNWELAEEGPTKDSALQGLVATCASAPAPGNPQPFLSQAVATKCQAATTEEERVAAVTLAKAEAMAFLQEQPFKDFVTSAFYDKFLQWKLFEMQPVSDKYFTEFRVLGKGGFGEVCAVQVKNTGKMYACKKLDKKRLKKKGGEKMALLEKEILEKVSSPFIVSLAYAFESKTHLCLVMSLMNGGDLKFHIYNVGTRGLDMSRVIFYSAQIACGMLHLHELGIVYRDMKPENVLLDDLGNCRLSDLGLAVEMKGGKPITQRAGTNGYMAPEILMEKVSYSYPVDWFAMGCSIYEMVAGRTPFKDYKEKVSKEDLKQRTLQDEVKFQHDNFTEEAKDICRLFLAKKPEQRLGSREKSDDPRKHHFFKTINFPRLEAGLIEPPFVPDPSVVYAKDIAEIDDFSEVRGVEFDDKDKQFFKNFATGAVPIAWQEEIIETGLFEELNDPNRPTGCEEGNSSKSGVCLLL

[6] = biological target: T6, panel of 374 wild-type kinases (Homo sapiens, UniProt Q9P1W9); conditions: read-out: % Enzyme Activity (relative to DMSO controls), kinase PIM2
T6 construct: purchased Reaction Biology Corporation

[7] = biological target: T7, panel of 374 wild-type kinases (Homo sapiens, UniProt Q9Y2U5); conditions: read-out: % Enzyme Activity (relative to DMSO controls), MEKK2
T7 construct: purchased Reaction Biology Corporation
T7 sequence (Q9Y2U5 1-619): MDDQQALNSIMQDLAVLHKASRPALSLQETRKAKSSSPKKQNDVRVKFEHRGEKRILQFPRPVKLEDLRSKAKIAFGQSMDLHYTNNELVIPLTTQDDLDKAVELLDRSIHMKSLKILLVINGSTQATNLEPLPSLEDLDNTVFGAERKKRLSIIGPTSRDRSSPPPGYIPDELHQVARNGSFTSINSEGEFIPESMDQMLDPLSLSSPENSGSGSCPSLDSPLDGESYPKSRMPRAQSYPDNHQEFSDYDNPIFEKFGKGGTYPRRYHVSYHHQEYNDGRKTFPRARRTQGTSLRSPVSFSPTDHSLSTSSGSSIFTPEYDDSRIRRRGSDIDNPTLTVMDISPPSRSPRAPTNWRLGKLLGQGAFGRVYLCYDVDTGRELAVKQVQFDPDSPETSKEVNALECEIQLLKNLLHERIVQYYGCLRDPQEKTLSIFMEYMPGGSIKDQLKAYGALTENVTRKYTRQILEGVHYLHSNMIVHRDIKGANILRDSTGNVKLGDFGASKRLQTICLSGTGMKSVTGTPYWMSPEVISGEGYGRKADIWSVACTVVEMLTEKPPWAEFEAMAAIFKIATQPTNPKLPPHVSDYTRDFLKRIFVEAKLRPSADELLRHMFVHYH

T6 sequence (Q9P1W9 whole entry): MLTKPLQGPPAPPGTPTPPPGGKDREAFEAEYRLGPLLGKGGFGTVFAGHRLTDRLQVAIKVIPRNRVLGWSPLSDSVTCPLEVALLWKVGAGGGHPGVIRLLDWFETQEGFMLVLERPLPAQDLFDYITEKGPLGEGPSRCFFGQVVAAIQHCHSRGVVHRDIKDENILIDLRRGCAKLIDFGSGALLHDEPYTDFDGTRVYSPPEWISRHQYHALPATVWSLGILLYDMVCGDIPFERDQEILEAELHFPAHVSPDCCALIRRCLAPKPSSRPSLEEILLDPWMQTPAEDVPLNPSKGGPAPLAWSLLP
T1 sequence (P07332 whole entry): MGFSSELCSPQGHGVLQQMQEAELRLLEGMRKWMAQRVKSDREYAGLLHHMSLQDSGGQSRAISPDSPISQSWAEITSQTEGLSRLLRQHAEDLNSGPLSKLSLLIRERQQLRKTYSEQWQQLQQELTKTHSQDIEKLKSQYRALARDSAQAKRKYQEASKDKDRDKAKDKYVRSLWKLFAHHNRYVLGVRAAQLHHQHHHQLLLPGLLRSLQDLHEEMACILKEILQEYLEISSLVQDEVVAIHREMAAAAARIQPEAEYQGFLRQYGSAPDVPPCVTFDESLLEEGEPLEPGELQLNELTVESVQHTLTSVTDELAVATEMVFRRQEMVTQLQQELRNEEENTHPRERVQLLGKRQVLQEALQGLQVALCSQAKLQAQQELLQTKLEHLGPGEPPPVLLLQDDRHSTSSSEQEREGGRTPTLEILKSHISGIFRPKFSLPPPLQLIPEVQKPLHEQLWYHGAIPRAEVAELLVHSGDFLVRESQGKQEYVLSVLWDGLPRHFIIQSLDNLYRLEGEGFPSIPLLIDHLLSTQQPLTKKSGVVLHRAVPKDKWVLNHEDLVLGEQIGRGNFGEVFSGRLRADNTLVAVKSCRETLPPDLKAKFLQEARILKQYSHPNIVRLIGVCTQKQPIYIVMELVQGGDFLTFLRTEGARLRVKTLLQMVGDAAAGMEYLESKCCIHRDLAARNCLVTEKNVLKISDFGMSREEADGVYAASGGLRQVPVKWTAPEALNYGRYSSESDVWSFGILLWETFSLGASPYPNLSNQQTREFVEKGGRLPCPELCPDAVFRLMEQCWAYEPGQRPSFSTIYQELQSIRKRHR
T3 sequence (Q07912 whole entry): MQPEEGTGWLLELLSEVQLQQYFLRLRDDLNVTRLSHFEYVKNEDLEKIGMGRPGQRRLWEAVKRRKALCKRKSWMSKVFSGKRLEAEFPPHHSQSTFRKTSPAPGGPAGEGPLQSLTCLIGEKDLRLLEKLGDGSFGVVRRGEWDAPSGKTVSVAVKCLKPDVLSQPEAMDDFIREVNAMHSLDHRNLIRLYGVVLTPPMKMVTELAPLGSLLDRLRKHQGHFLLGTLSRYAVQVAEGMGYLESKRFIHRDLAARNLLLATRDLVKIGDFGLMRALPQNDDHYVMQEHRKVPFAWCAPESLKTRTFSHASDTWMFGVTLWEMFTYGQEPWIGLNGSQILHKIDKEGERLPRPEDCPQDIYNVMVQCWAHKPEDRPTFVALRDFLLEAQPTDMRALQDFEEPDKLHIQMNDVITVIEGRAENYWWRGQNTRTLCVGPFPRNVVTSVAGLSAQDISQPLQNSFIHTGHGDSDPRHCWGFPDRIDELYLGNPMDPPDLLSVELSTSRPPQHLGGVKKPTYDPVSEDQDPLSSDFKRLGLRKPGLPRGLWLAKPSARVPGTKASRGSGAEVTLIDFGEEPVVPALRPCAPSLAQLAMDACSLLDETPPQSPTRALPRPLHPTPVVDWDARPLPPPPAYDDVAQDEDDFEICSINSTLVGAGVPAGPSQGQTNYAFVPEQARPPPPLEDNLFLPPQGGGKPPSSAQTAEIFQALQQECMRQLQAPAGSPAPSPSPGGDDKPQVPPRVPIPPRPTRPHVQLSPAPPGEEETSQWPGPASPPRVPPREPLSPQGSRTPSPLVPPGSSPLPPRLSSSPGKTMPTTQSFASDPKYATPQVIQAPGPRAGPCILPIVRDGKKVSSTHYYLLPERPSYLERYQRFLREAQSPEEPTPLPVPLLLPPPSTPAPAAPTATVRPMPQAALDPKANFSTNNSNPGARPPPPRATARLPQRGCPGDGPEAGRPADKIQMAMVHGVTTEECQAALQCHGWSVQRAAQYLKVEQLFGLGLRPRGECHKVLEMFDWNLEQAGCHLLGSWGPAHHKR
T4 sequence (Q6P5Z2 whole entry): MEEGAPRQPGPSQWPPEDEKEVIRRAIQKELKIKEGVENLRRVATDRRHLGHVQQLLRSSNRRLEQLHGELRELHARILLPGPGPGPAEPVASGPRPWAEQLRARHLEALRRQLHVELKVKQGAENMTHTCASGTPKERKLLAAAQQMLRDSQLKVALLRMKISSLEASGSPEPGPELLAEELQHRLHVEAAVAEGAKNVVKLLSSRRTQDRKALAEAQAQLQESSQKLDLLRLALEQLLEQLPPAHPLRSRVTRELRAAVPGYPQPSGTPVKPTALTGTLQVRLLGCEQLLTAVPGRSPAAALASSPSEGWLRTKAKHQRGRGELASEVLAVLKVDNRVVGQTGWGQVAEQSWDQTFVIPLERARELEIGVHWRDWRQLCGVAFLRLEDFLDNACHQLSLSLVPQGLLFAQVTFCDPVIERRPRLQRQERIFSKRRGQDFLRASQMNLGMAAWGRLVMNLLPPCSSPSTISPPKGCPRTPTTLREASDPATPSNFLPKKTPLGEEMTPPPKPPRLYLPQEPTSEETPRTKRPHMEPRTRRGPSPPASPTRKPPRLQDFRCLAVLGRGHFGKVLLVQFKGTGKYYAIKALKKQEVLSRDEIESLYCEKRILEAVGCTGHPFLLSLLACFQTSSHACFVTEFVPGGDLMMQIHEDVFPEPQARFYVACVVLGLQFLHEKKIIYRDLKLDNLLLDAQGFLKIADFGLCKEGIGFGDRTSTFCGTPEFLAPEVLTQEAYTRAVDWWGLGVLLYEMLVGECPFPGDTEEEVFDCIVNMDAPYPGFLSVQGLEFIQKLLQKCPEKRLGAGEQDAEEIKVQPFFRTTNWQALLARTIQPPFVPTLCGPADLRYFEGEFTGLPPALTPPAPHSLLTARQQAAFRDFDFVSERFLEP

Structure (SMILES)	remaining activity at 5 µM [1] [%]	remaining activity at 5 µM [2] [%]	remaining activity at 5 µM [3] [%]	remaining activity at 5 µM [4] [%]	remaining activity at 5 µM [5] [%]	remaining activity at 5 µM [6] [%]	remaining activity at 5 µM [7] [%]	remaining activity at 10 µM ([1]; 10 uM) [%]	remaining activity at 10 µM ([2]; 10 uM) [%]	remaining activity at 10 µM ([3]; 10 uM) [%]	remaining activity at 10 µM ([4]; 10 uM) [%]	remaining activity at 10 µM ([5]; GRK7, 10 uM, read-out: % Enzyme Activity (relative to DMSO controls)) [%]	remaining activity at 10 µM ([6]; 10 uM) [%]	remaining activity at 10 µM ([7]; 10 uM) [%]
O=C(Nc1cnn(-c2csc(C(=O)NC3COC3)c2)c1)Nc1ccccc1Cl [Compound 17, 4-(4-(3-(2-chlorophenyl)ureido)-1H-pyrazol-1-yl)-N-(oxetan-3-yl)thiophene-2-carboxamide]	99.3	95.1	85.6	92.5	96.4	96.4	110							
Cc1sc(C(=O)NC2COC2)cc1-n1cc(NC(=O)Nc2c(F)cccc2Cl)cn1 [Compound 27, 4-(4-(3-(2-chloro-6-fluorophenyl)ureido)-1H-pyrazol-1-yl)-5-methyl-N-(oxetan-3-yl)thiophene-2-carboxamide]								93.7	84.1	106	98.6	98.3	96.5	88.1
O=C(Nc1cnn(-c2csc(C(=O)NC3COC3)c2)c1)Nc1c(F)cccc1Cl [Compound 25, 4-(4-(3-(2-chloro-6-fluorophenyl)ureido)-1H-pyrazol-1-yl)-N-(oxetan-3-yl)thiophene-2-carboxamide]	87.8	94.4	94.6	76.2	94	129	80.1							
